This is an account of results in PMC5561046, “Cytochrome P450/ABC transporter inhibition simultaneously enhances ivermectin pharmacokinetics in the mammal host and pharmacodynamics in Anopheles gambiae” (Scientific Reports, 2017).

Where “and” joins values, the source holds several entries; their conditions need not be identical. Identical values can stand only once. Entries after “also recorded” stand apart in the source; their conditions may differ. Some results are limits rather than exact numbers.

For data set [1] the following is noted: minipig, in vivo. The protocol: (§1) The experiments were conducted following a randomised crossover design (Fig. 1). In phase I all mini-pigs received a single 800 mcg/kg dose of oral ivermectin and sampling was done as described below. […] The total wash-out period between ivermectin doses was 30 days. […] Inhibiting the P-gp could theoretically lead to toxicity due to abnormal accumulation of the drug in the brain[30], [31]. […] Irrespectively of this, drug quantification in cerebrospinal fluid (CSF) was added as an additional safety point. Rifampicin a CYP/P-gp inducer[49] was included as we expected to see reduced bioavailability and penetration into CSF.
For obtaining CSF samples during the first 8 hours, an intrathecal catheter was placed by means of fluoroscopy-guided lateral lumbar puncture[81] (Fig. 5). Given the challenges posed by the particular anatomy of the pig, efforts were done to tunnel the intrathecal catheter and connect it to a subcutaneous reservoir in order to avoid repeating the technically demanding lumbar puncture during phase II of the study (Fig. 5). […] Sampling points for CSF were: pre-treatment and at 0.5, 1, 2, 3, 4, 5, 6, 7 and 8 hours. […]
(§2) Ivermectin levels in plasma and CSF were determined using a validated adaptation of a previously described HPLC-FLD[82]. The detection limit in plasma and CSF was 0.1 ng/ml, the quantification limit was 0.5 ng/ml.

A short description of data set [2]: Clinical observation of mini-pigs for adverse events / ivermectin toxicity signs. It counts as in vivo, mini-pig. The conditions noted are these: oral ivermectin 800 mcg/kg with or without ketoconazole or rifampicin pre-treatment. As for the experimental part: Six hybrid mini-pigs (2 male, 4 female) weighing between 46 and 70 kg were procured from our accredited breeding centre at the University of Navarra. They were housed individually throughout the study at the animal research facilities in the University of Navarra. From arrival onward, the animals were assessed daily for general wellbeing and after the intervention, also for specific ivermectin toxicity signs.

The subject of data set [3] is Anopheles gambiae. Kind of data set: Synergistic mosquito bioassay: membrane feeding with mini-pig serum samples, mortality follow-up. The class given is in vivo, Anopheles gambiae s.s. The conditions noted are these: for Mean survival / Time to median mortality: Anopheles gambiae, membrane feeding. The protocol:
Mosquitoes were membrane fed with reconstituted blood as described by Bousema et al.[51].
Since mosquitoes grouped in cups for feeding, we used a cluster design in which the unit of intervention was mosquito cups. Our primary outcome was mean 10-day mosquito mortality after membrane feeding. Sample size calculations were conducted according to the method described by Gangnon and Kosorok[52]. The minimum expected 10-day mortality in mosquitoes imbibing blood containing 9.9 ng/ml of ivermectin is 66%; this is based on the predictive function described by Ouedraogo et al.[50]. Based on previous observations and with all mosquitoes having the same colony origin and age range, we chose a conservative intracluster correlation of 0.15. The frailty variance of clusters was resembled by a gamma of 1. All experiments were performed in triplicate. With these parameters, at least 4 clusters of 44 mosquitoes were needed per arm to achieve 80% power at 5% significance level accounting for 10% non-feeders.
Baseline serum samples collected before ivermectin treatment in ketoconazole and naïve pigs were used as controls. These samples were shipped frozen to the insectary facilities of the Ifakara Health Institute in Bagamoyo, Tanzania for membrane feeding assays. It was hypothesised that induction of the mosquito CYP/P-gp by rifampicin could improve survival in presence of ivermectin, but this could not be tested due to a reduced absorption of ivermectin in the mini-pigs pre-treated with rifampicin (see below).
For all experiments, we used the fully susceptible Anopheles gambiae s.s. colony maintained at the insectary in Bagamoyo. Mosquitoes were reared at 28 °C, 80% humidity and with a photoperiod of 12:12. Larvae were kept in large plastic bowls covered with netting containing approximately 2 litres of water with larval densities not exceeding one 4th instar larvae per ml. Larvae were fed Tetramine fish flakes ad libitum. Once they developed into pupae these were collected using disposable plastic Pasteur pipettes and transferred to small bowls containing approximately 200 ml of clean water. The pupae bowls were then placed inside fully screened cages (30 × 30 × 30 cm) where adult mosquitoes were allowed to emerge and given 10% glucose as a sugar source ad libitum.
Only mosquitoes of 2–5 days of age were used for the experiments. Before the experiments, mosquitoes were starved from sugar for 12–18 hours and from water for one hour. Hungry females were selected by applying a bottle with heated water (37–40 °C) to the cage. 40–50 hungry females were transferred to each paper cup using a mouth aspirator.
We performed membrane feeding assays with serum replacement as previously described. For each experiment, the selected pig sample was thawed and 1 ml of whole blood was centrifuged at 2100 rpm for 10 minutes. The serum volume was noted and replaced with the same amount of the sample pig-serum being tested. After this, tubes were inverted 10 times. Each sample was tested in triplicate.
In order to reduce potential confounding arising from variations in bloodmeal size, partially fed mosquitoes were discarded and only fully engorged females followed up for the mortality assessment. After each feeding experiment, the cups were placed on ice for 1–2 minutes to select and transfer fully engorged females.
Cups with fully engorged mosquitoes were kept at 24–26 °C and 65–70% relative humidity inside climate controlled incubators. Mosquitoes were maintained with 10% glucose solution using impregnated cotton. Mortality was recorded daily for 9 days by a person blinded to the allocation of the cups. Dead mosquitoes were removed from the cups daily.
Survival Kaplan-Meier analysis was performed in Addinsoft’s XLSTAT ® Version 2016.04.32229 (New York, NY, USA). Comparisons of survival patterns were done with Log-rank test using a 5% significance level adjusted for cluster design.

Data set [4] is described as follows: Drug-drug interaction study: ivermectin plasma pharmacokinetics in mini-pigs. The conditions noted are these: for AUC inf, Median (Range) / Cmax, Median (Range) / AUC > LD50, Median (Range) / Time > LD50, Median (Range): group median (range); for AUC inf, Median (Range) / Cmax, Median (Range): plasma ivermectin, single oral 800 mcg/kg; for AUC inf, Median (Range) / Cmax, Median (Range) / AUC > LD50, Median (Range) / Time > LD50, Median (Range) / Time > LD50: treatment group as in the label; for AUC > LD50, Median (Range): area under the plasma ivermectin curve above 6 ng/ml; for AUC > LD50, Median (Range) / Time > LD50, Median (Range) / Time > LD50: oral 800 mcg/kg; for Time > LD50, Median (Range): time plasma ivermectin is above 6 ng/ml; for Time > LD50: individual mini-pig, time plasma ivermectin is above 6 ng/ml (10-day LC50 for Anopheles gambiae). As for the experimental part: as §1
The pre-medication drugs were administered by crushing the tablets and mixing them with canned meat products used for enrichment. For ivermectin administration and sampling during the first 8 hours, the animals were sedated with a single intramuscular dose of tiletamine-zolazepan (4 mg/kg) and maintained with inhalatory isoflurane (1.5–2%). In pigs, there is no evidence of a significant interaction (other than being a substrate) of these drug classes with the CYP3A4 or the P-gp[80]. Ivermectin was administered via nasogastric tube.
For blood sampling during the first eight hours, a femoral line was left in place and later removed during recovery from anaesthesia. Blood sampling thereafter was done by jugular puncture under restrain. […] For the mosquito bioassay, additional serum samples were obtained at every time point, and frozen at −20 °C.
Blood samples were drawn in 3 ml EDTA tubes and centrifuged. Plasma was separated and frozen at −20 °C until analysis. CSF samples were frozen at −20 °C.
as §2
Pharmacokinetic analyses were performed using Phoenix WinNonlin 6.4 (Certara, Princeton, NJ, USA). Pharmacokinetic parameters were derived from non-compartmental analyses.
The comparison of PK parameters between ivermectin groups was done by means of a two-sided Mann-Whitney test.

Data set [5] has as its system Anopheles gambiae. On the set-up: method as in PMID 25414262. The conditions noted are these: cited from earlier work.
For data set [6] the following is noted: cited from earlier work.
A further data set deals with CYP 3A4. On the set-up: method as in PMID 19255936. As to conditions: estimated; cited from earlier work.
[7] abbreviates: Pair 1: ivermectin 9.98 (IVM) vs 8.96 (KET) ng/ml in the fed sample.
Setting [8] is: Pair 2: ivermectin 16.5 (IVM) vs 17.23 (KET) ng/ml in the fed sample.
The mark [9] stands for this setting: Pair 3: ivermectin 20.46 (IVM) vs 20.39 (KET) ng/ml in the fed sample.
Where [10] appears, read: Pair 4: ivermectin 27.58 (IVM) vs […] (KET) ng/ml in the fed sample.

The term half-life denotes the time needed for the level to fall by half in the phase considered. With `CCC(C)C1OC2(CCC1C)CC1CC(CC=C(C)C(OC3CC(OC)C(OC4CC(OC)C(O)C(C)O4)C(C)O3)C(C)C=CC=C3COC4C(O)C(C)=CC(C(=O)O1)C34O)O2` (stereo not shown) [Ivermectin], in data set [1], the “ivermectin concentration in CSF” value was < 0.5 ng/mL and the “number of CSF samples in which ivermectin was detectable” value worked out at 4. The clinical adverse events result in data set [2] is “No clinical adverse events were observed”. Besides, in the data set with Anopheles gambiae [3] (setting [7]), the Mean survival is reported as 6.73 (6.29–7.17) days and the “Time to median mortality” value worked out at 7 days. Further, in the data set on Anopheles gambiae [3] (setting [8]), the Mean survival is recorded as 5.11 (4.63–5.86) days and the “Time to median mortality” value was 5 days. In the data set with Anopheles gambiae [3] (setting [9]), the Mean survival was 7.43 (7.11–7.75) days and the “Time to median mortality” value was found to be 7 days. In the data set on Anopheles gambiae [3] (setting [10]), the Mean survival is 5.28 (4.54–6.02) days and the “Time to median mortality” value stood at 5 days. For the same compound, in data set [4] (listed as Ivermectin 1), the “AUC inf, Median (Range)” value is given as 244 (1899) h·ng/mL; the “Cmax, Median (Range)” value is 8.7 (26.0) ng/mL; the “AUC > LD50, Median (Range)” value is reported as 23.7 (509.4) h·g/mL; the “Time > LD50, Median (Range)” value is recorded as 4.6 (46.7) h. The “Time > LD50” value in data set [4] (listed as Ivermectin 1) is listed as 9.3 h. For the same compound, in data set [4] (listed as Ivermectin 2), the “AUC inf, Median (Range)” value is reported as 1205.3 (349) h·ng/mL; the “Cmax, Median (Range)” value is given as 18 (5.6) ng/mL; the “AUC > LD50, Median (Range)” value is 297.6 (142.6) h·g/mL; the “Time > LD50, Median (Range)” value is listed as 49.9 (9.1) h. In data set [4] (listed as Ivermectin 2), the “Time > LD50” value was 54.5 h and 45.4 h. Moreover, in data set [4] (listed as Ivermectin(combined)), the “AUC inf, Median (Range)” value is 862.7 (1899) h·ng/mL; the “Time > LD50” value was 46.7 h and 27.2 h and 0.0 h. Moreover, the “increase in ivermectin time above LC50” value in data set [4] (ketoconazole pre-treatment vs ivermectin alone, mini-pigs) stood at 3 fold. In data set [4] (plasma ivermectin in mini-pigs, ivermectin alone (combined) vs ketoconazole pre-treatment, P = 0.033), the “median Cmax” value was found to be 14 ng/mL. In addition, the “total AUC” value in data set [4] (plasma ivermectin in mini-pigs, ivermectin alone (combined) vs ketoconazole pre-treatment, P = 0.067, not significant) was 862 ng·h/mL. The “10-day lethal concentration 50 (LC50)” value in the data set on Anopheles gambiae [5] (kills 50% of Anopheles gambiae in 10 days) is 6 ng/ml. Further, in the data set on Anopheles gambiae [5] (mosquitoes imbibing blood containing 9.9 ng/ml of ivermectin, from predictive function), the “minimum expected 10-day mortality” value is listed as 66%. The “time for which concentrations that kill 50% of Anopheles gambiae in 10 days are sustained” value in data set [6] (after the single dose of 200 mcg/kg commonly used for NTDs, no reference given) was “around 72 hours”. For the same compound, the half-life in data set [6] is 18 h.
What is called IC50 is the point on the concentration scale where inhibition reaches its midpoint. For the compound `CC(=O)N1CCN(c2ccc(OCC3COC(Cn4ccnc4)(c4ccc(Cl)cc4Cl)O3)cc2)CC1` (stereo not shown) [ketoconazole], the IC50 in the data set on CYP 3A4 was […]. In addition, in the data set with Anopheles gambiae [3] (ketoconazole at CYP inhibition concentrations, matched ivermectin concentrations (+/−1 ng/ml), all four pairs), the “effect on mortality of Anopheles gambiae fed samples containing ivermectin” value is given as “significantly increased the mortality”. The “effect on 10-day mortality of Anopheles gambiae” value in the data set on Anopheles gambiae [3] (ketoconazole-only baseline pig sample vs fully drug-free sample, Log-rank P = 0.048, n = 222) is “did not increase the mortality”.
On to `CO[C@H]1/C=C/O[C@@]2(C)Oc3c(C)c(O)c4c(O)c(c(/C=N/N5CCN(C)CC5)c(O)c4c3C2=O)NC(=O)/C(C)=C\C=C\[C@H](C)[C@H](O)[C@@H](C)[C@@H](O)[C@@H](C)[C@H](OC(C)=O)[C@@H]1C` [rifampicin, Rifampicin], for which the “effect of pre-treatment on ivermectin absorption” value in data set [4] (rifampicin pre-treatment (CYP/P-gp induction), mini-pigs, oral ivermectin 800 mcg/kg) was “markedly impaired ivermectin absorption; also recorded: seriously hampered ivermectin absorption”.
